Some test systems named below: MCF7 breast; A498 renal; MOLT-4 leukemia; SNB-19 CNS; UO-31 renal; HCT-116 colon; NCI-H226 lung; BT-549 breast; UACC-257 melanoma; NCI-H522 lung.
Assay in all cases: NCI tumour cell line growth inhibition, 48 h

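Results reflect a 48-hour exposure of cells in 96-well plates to compound at five concentrations. GI50 = concentration required for 50% inhibition of growth. Definition used: TGI = concentration required for complete inhibition of growth.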

Consider `COc1ccc(Nn2c(SCC(=O)Nc3nc(-c4ccc(Cl)cc4)cs3)nc(C)c2C)cc1`, for which the GI50 is 3.36 µM in the assay on MCF7 breast; 2220 nM with A498 renal; 2540 nM in the assay on MOLT-4 leukemia; 6.19 µM in the assay with SNB-19 CNS; 2.62 µM in the assay with UO-31 renal; 2.12 µM with HCT-116 colon. Also, the GI50 in the assay with NCI-H226 lung was 3.26 µM; in the assay on BT-549 breast, 6.46 µM; in the assay with UACC-257 melanoma it was 2.97 µM; with NCI-H522 lung, 5.05 µM. Also, the TGI is 25.5 µM with MCF7 breast; 56.5 µM in the assay with A498 renal; greater than 100 µM with MOLT-4 leukemia; greater than 100 µM in the assay on SNB-19 CNS; greater than 100 µM in the assay with UO-31 renal; 14.1 µM with HCT-116 colon. The TGI with NCI-H226 lung is greater than 100 µM; in the assay on BT-549 breast it was 82 µM; with UACC-257 melanoma, 41.1 µM; in the assay on NCI-H522 lung it was greater than 100 µM.

On to `CCCCCCCC/C=C/CCCCCCCC1=NCC[N+]1(CCO)CCO`, for which the GI50 in the assay with MCF7 breast is 3.94 µM; in the assay on A498 renal, 2210 nM; in the assay on MOLT-4 leukemia, 2230 nM; in the assay with SNB-19 CNS, 4.49 µM; in the assay on UO-31 renal it was 3.97 µM; with HCT-116 colon it was 2.81 µM. Besides, the GI50 is 4.16 µM in the assay on NCI-H226 lung, 3.17 µM in the assay with BT-549 breast, 2.25 µM in the assay with UACC-257 melanoma and 1.61 µM in the assay on NCI-H522 lung. Also, the TGI in the assay on MCF7 breast turned out to be 18.6 µM; in the assay on A498 renal, 14.2 µM; in the assay with MOLT-4 leukemia it was 6.58 µM; in the assay with SNB-19 CNS it was 25.2 µM; in the assay with UO-31 renal, 19.7 µM; in the assay with HCT-116 colon, 8.78 µM. Also, the TGI with NCI-H226 lung worked out at 19.8 µM; in the assay with BT-549 breast, 10.8 µM; in the assay on UACC-257 melanoma, 8.42 µM; with NCI-H522 lung, 4.46 µM.

Consider `COc1ccc(NC(=O)n2nc(N)c3ccccc32)cc1OC`, for which the GI50 in the assay with MCF7 breast is 29.5 µM; in the assay with A498 renal, 30300 nM; in the assay on MOLT-4 leukemia, 39400 nM; in the assay on SNB-19 CNS, greater than 100 µM; with UO-31 renal it was 28.5 µM; with HCT-116 colon, 43.5 µM. Also, the GI50 in the assay with NCI-H226 lung is 83.1 µM; in the assay on BT-549 breast, 25.9 µM; in the assay with UACC-257 melanoma it was 73.6 µM; in the assay on NCI-H522 lung it was 34.9 µM. The TGI with MCF7 breast was greater than 100 µM; in the assay with A498 renal, 85.4 µM; in the assay on MOLT-4 leukemia, greater than 100 µM; in the assay with SNB-19 CNS, greater than 100 µM; with UO-31 renal it was greater than 100 µM; in the assay on HCT-116 colon it was greater than 100 µM. Moreover, the TGI in the assay with NCI-H226 lung, in the assay on BT-549 breast, in the assay with UACC-257 melanoma and in the assay on NCI-H522 lung was greater than 100 µM throughout.

For `C=C(C)[C@@H]1CC[C@]2(C)[C@H](C(=O)C=C3[C@@H]4C[C@](C)(C(=O)N5CCN(C)CC5)CC[C@]4(C)CC[C@]32C)[C@@]1(C)CCC#N`, the GI50 in the assay with MCF7 breast is 5.45 µM; with A498 renal it was 7770 nM; in the assay on MOLT-4 leukemia it was 2950 nM; with SNB-19 CNS, 7.87 µM; in the assay on UO-31 renal, 5.37 µM; with HCT-116 colon, 3.03 µM. Further, the GI50 was 7.42 µM in the assay on NCI-H226 lung, 6.67 µM with BT-549 breast, 6.39 µM in the assay with UACC-257 melanoma and 7.21 µM in the assay with NCI-H522 lung. Also, the TGI turned out to be 12.5 µM in the assay on MCF7 breast; 14.9 µM in the assay with A498 renal; 10.9 µM in the assay with MOLT-4 leukemia; 14.9 µM with SNB-19 CNS; 11.3 µM in the assay with UO-31 renal; 9.33 µM with HCT-116 colon. Besides, the TGI in the assay with NCI-H226 lung was 15.9 µM; with BT-549 breast, 13.4 µM; with UACC-257 melanoma, 13.9 µM; with NCI-H522 lung, 15.3 µM.

Take `CCOc1ccc([C@@H]2[C@@H](Oc3ccccc3)C(=O)N2c2cc(OC)c(OC)c(OC)c2)cc1`: the GI50 in the assay on MCF7 breast was 0.0431 µM; in the assay with A498 renal, 20.5 nM; in the assay with MOLT-4 leukemia, 170 nM; in the assay on SNB-19 CNS, 0.289 µM; in the assay on UO-31 renal, 0.613 µM; in the assay on HCT-116 colon, 0.0437 µM. Moreover, the GI50 was 1.13 µM with NCI-H226 lung, 0.0681 µM in the assay on BT-549 breast, 86.4 µM in the assay with UACC-257 melanoma and 0.0323 µM in the assay with NCI-H522 lung. Moreover, the TGI in the assay on MCF7 breast is greater than 100 µM; in the assay with A498 renal it was 0.0853 µM; in the assay with MOLT-4 leukemia it was greater than 100 µM; in the assay on SNB-19 CNS it was greater than 100 µM; with UO-31 renal it was greater than 100 µM; with HCT-116 colon, 3.88 µM. Further, the TGI is greater than 100 µM with NCI-H226 lung, greater than 100 µM in the assay with BT-549 breast, greater than 100 µM in the assay with UACC-257 melanoma and 0.371 µM in the assay with NCI-H522 lung.

`Cc1nc2sccn2c(=O)c1CCN1CCC(=C(c2ccc(F)cc2)c2ccc(F)cc2)CC1`: the GI50 in the assay with MCF7 breast is 6.88 µM; in the assay with A498 renal, 15300 nM; with MOLT-4 leukemia it was 8520 nM; in the assay with SNB-19 CNS it was 16 µM; in the assay with UO-31 renal, 4.06 µM; with HCT-116 colon it was 5.36 µM. Further, the GI50 was 15.3 µM in the assay with NCI-H226 lung, 9.38 µM in the assay with BT-549 breast, 9.2 µM in the assay with UACC-257 melanoma and 11.1 µM with NCI-H522 lung. For the same compound, the TGI in the assay on MCF7 breast came to 23 µM; in the assay with A498 renal it was 29.4 µM; in the assay with MOLT-4 leukemia, 29.9 µM; in the assay with SNB-19 CNS, 30.3 µM; with UO-31 renal it was 18.8 µM; in the assay with HCT-116 colon, 20.3 µM. The TGI was found to be 41 µM in the assay with NCI-H226 lung, 24.5 µM with BT-549 breast, 21.9 µM in the assay on UACC-257 melanoma and 25.7 µM in the assay with NCI-H522 lung.

With `O=[N+]([O-])c1ccc(-c2nc(-c3ccccc3)c(-c3ccccc3)n2-c2ccccc2)cc1`, the GI50 in the assay on MCF7 breast was 2.04 µM; with A498 renal, 2810 nM; with MOLT-4 leukemia, 2280 nM; in the assay with SNB-19 CNS, 3.75 µM; with UO-31 renal it was 1.99 µM; in the assay on HCT-116 colon, 3.47 µM. Also, the GI50 in the assay on NCI-H226 lung was 4.57 µM; in the assay with BT-549 breast, 2.16 µM; with UACC-257 melanoma it was 2.39 µM; in the assay with NCI-H522 lung, 3.05 µM. Moreover, the TGI in the assay on MCF7 breast was 6.28 µM; in the assay on A498 renal, 9.12 µM; in the assay on MOLT-4 leukemia, 11.5 µM; in the assay on SNB-19 CNS, greater than 48.8 µM; with UO-31 renal it was 6.67 µM; with HCT-116 colon, 14 µM. The TGI is greater than 24.5 µM in the assay with NCI-H226 lung, 6.53 µM in the assay with BT-549 breast, 5.87 µM in the assay on UACC-257 melanoma and greater than 28.4 µM with NCI-H522 lung.

The record behind these values is PubChem BioAssay (NCI).
